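Cultured in 96-well plates, cells were exposed to test compound for 48 hours across five concentrations. The concentration for 50% growth inhibition is given as GI50. TGI marks complete inhibition of growth.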
Experiments:
Assay in all cases: DTP human tumour cell line panel, 48 h; in the data active = GI50 below about 0.43 µM; inactive = the rest
SK-MEL-5 melanoma = system: SK-MEL-5 melanoma
IGROV1 ovarian = system: IGROV1 ovarian
HT29 colon = system: HT29 colon
786-0 renal = system: 786-0 renal
SK-MEL-2 melanoma = system: SK-MEL-2 melanoma
MDA-MB-435 = system: MDA-MB-435
MCF7 breast = system: MCF7 breast
LOX IMVI melanoma = system: LOX IMVI melanoma
SNB-75 CNS = system: SNB-75 CNS
HS 578T breast = system: HS 578T breast
HOP-92 NSCLC = system: HOP-92 NSCLC
NCI-H23 lung = system: NCI-H23 lung
KM12 colon = system: KM12 colon
MOLT-4 leukemia = system: MOLT-4 leukemia
SR leukemia = system: SR leukemia
NCI-H522 lung = system: NCI-H522 lung
M14 melanoma = system: M14 melanoma
CCRF-CEM leukemia = system: CCRF-CEM leukemia
UACC-257 melanoma = system: UACC-257 melanoma
HCT-116 colon = system: HCT-116 colon
SF-268 CNS = system: SF-268 CNS
NCI-H226 lung = system: NCI-H226 lung
SK-MEL-28 melanoma = system: SK-MEL-28 melanoma
SF-539 CNS = system: SF-539 CNS
SK-OV-3 ovarian = system: SK-OV-3 ovarian
HCC-2998 colon = system: HCC-2998 colon
UACC-62 melanoma = system: UACC-62 melanoma
RPMI-8226 leukemia = system: RPMI-8226 leukemia
TK-10 renal = system: TK-10 renal
HCT-15 colon = system: HCT-15 colon
COLO 205 colon = system: COLO 205 colon
A549 NSCLC = system: A549 NSCLC
U251 CNS = system: U251 CNS
SF-295 CNS = system: SF-295 CNS
OVCAR-3 ovarian = system: OVCAR-3 ovarian
CAKI-1 renal = system: CAKI-1 renal
OVCAR-4 ovarian = system: OVCAR-4 ovarian
ACHN renal = system: ACHN renal
UO-31 renal = system: UO-31 renal
PC-3 prostate = system: PC-3 prostate
HL-60(TB) leukemia = system: HL-60(TB) leukemia
HOP-62 NSCLC = system: HOP-62 NSCLC
EKVX NSCLC = system: EKVX NSCLC
SW-620 colon = system: SW-620 colon
A498 renal = system: A498 renal
NCI-H460 lung = system: NCI-H460 lung
K-562 leukemia = system: K-562 leukemia
SNB-19 CNS = system: SNB-19 CNS
MDA-MB-231 breast = system: MDA-MB-231 breast
T-47D breast = system: T-47D breast
NCI/ADR-RES ovarian = system: NCI/ADR-RES ovarian
MALME-3M melanoma = system: MALME-3M melanoma
SN12C renal = system: SN12C renal
DU-145 prostate = system: DU-145 prostate
OVCAR-5 ovarian = system: OVCAR-5 ovarian
BT-549 breast = system: BT-549 breast
OVCAR-8 ovarian = system: OVCAR-8 ovarian

CCOC(=O)CCSC1=CC(=O)c2nc3ccccc3c3ccnc1c23
91 µM: TGI (OVCAR-5 ovarian)
31.9 µM: TGI (CAKI-1 renal)
42.5 µM: TGI (ACHN renal)
77.4 µM: TGI (A549 NSCLC)
34.9 µM: TGI (UO-31 renal)
31.8 µM: TGI (SN12C renal)
76.4 µM: TGI (EKVX NSCLC)
inactive: GI50 (SK-MEL-5 melanoma) 13.4 µM | GI50 (IGROV1 ovarian) 22.7 µM | GI50 (HT29 colon) 26.2 µM | GI50 (786-0 renal) 17.5 µM | GI50 (SK-MEL-2 melanoma) 26.8 µM | GI50 (MDA-MB-435) 17.8 µM | GI50 (MCF7 breast) 13.3 µM | GI50 (LOX IMVI melanoma) 27 µM | GI50 (SNB-75 CNS) 39 µM | GI50 (HS 578T breast) 32.8 µM | GI50 (HOP-92 NSCLC) 25.8 µM | GI50 (NCI-H23 lung) 16.3 µM | GI50 (KM12 colon) 15 µM | GI50 (MOLT-4 leukemia) 7.31 µM | GI50 (SR leukemia) 7.59 µM | GI50 (NCI-H522 lung) 17.4 µM | GI50 (M14 melanoma) 11.3 µM | GI50 (CCRF-CEM leukemia) 3.44 µM | GI50 (UACC-257 melanoma) 14.6 µM | GI50 (HCT-116 colon) 17.1 µM | GI50 (SF-268 CNS) 17.1 µM | GI50 (NCI-H226 lung) 21.8 µM | GI50 (SK-MEL-28 melanoma) 20.2 µM | GI50 (SF-539 CNS) 18.2 µM | GI50 (SK-OV-3 ovarian) 29.3 µM | GI50 (HCC-2998 colon) 19.2 µM | GI50 (UACC-62 melanoma) 15.8 µM | GI50 (RPMI-8226 leukemia) 9.55 µM | GI50 (TK-10 renal) 16.7 µM | GI50 (HCT-15 colon) 24.8 µM | GI50 (COLO 205 colon) 24.9 µM | GI50 (A549 NSCLC) 18.3 µM | GI50 (U251 CNS) 29.8 µM | GI50 (SF-295 CNS) 17.1 µM | GI50 (OVCAR-3 ovarian) 12.6 µM | GI50 (CAKI-1 renal) 16.3 µM | GI50 (OVCAR-4 ovarian) 15.2 µM | GI50 (ACHN renal) 18.6 µM | GI50 (UO-31 renal) 16.3 µM | GI50 (PC-3 prostate) 13.5 µM | GI50 (HL-60(TB) leukemia) 26.7 µM | GI50 (HOP-62 NSCLC) 16.4 µM | GI50 (EKVX NSCLC) 29.4 µM | GI50 (SW-620 colon) 13.9 µM | GI50 (A498 renal) > 100 µM | GI50 (NCI-H460 lung) 13.4 µM | GI50 (K-562 leukemia) 26.9 µM | GI50 (SNB-19 CNS) 20.5 µM | GI50 (MDA-MB-231 breast) 16.7 µM | GI50 (T-47D breast) 24.3 µM | GI50 (NCI/ADR-RES ovarian) 32.8 µM | GI50 (MALME-3M melanoma) 17.5 µM | GI50 (SN12C renal) 15.7 µM | GI50 (DU-145 prostate) 16 µM | GI50 (OVCAR-5 ovarian) 27.5 µM | GI50 (BT-549 breast) 17.1 µM
35.4 µM: TGI (MALME-3M melanoma)
39.3 µM: TGI (786-0 renal)
33.2 µM: TGI (DU-145 prostate)
> 100 µM: TGI (IGROV1 ovarian) | TGI (LOX IMVI melanoma) | TGI (SNB-75 CNS) | TGI (HS 578T breast) | TGI (MOLT-4 leukemia) | TGI (SR leukemia) | TGI (CCRF-CEM leukemia) | TGI (RPMI-8226 leukemia) | TGI (COLO 205 colon) | TGI (U251 CNS) | TGI (HL-60(TB) leukemia) | TGI (A498 renal) | TGI (K-562 leukemia) | TGI (NCI/ADR-RES ovarian)
44.3 µM: TGI (SF-295 CNS)
73.8 µM: TGI (NCI-H226 lung)
37.7 µM: TGI (MDA-MB-435)
51.6 µM: TGI (SNB-19 CNS)
35.7 µM: TGI (UACC-257 melanoma)
93.4 µM: TGI (SK-OV-3 ovarian)
38.3 µM: TGI (MCF7 breast)
41.1 µM: TGI (SK-MEL-28 melanoma)
50.1 µM: TGI (NCI-H460 lung)
32.4 µM: TGI (TK-10 renal)
38.7 µM: TGI (PC-3 prostate)
30.4 µM: TGI (SK-MEL-5 melanoma)
37 µM: TGI (OVCAR-3 ovarian)
72.8 µM: TGI (SK-MEL-2 melanoma)
62.6 µM: TGI (HOP-92 NSCLC)
40.2 µM: TGI (HCC-2998 colon)
53.8 µM: TGI (HT29 colon)
39.4 µM: TGI (SF-268 CNS)
43.3 µM: TGI (NCI-H23 lung)
31.4 µM: TGI (UACC-62 melanoma)
41.6 µM: TGI (SW-620 colon) | TGI (MDA-MB-231 breast)
76 µM: TGI (T-47D breast)
76.6 µM: TGI (HCT-116 colon)
43 µM: TGI (NCI-H522 lung)
30.1 µM: TGI (M14 melanoma)
92.9 µM: TGI (HCT-15 colon)
47.7 µM: TGI (HOP-62 NSCLC)
34.1 µM: TGI (KM12 colon)
31.7 µM: TGI (OVCAR-4 ovarian)
35.2 µM: TGI (SF-539 CNS)
34.3 µM: TGI (BT-549 breast)

CCOC(=O)c1cc2c(n1Cc1ccccc1OC)-c1oncc1CCC2
inactive: GI50 (SK-MEL-5 melanoma) 2.61 µM | GI50 (IGROV1 ovarian) 1.99 µM | GI50 (HT29 colon) 0.912 µM | GI50 (786-0 renal) > 100 µM | GI50 (MCF7 breast) 0.716 µM | GI50 (LOX IMVI melanoma) 7.64 µM | GI50 (HS 578T breast) 3.38 µM | GI50 (NCI-H23 lung) 8.52 µM | GI50 (KM12 colon) 2.1 µM | GI50 (MOLT-4 leukemia) 5.68 µM | GI50 (SR leukemia) 0.438 µM | GI50 (M14 melanoma) 3.67 µM | GI50 (CCRF-CEM leukemia) 2.87 µM | GI50 (HCT-116 colon) 3.79 µM | GI50 (SF-268 CNS) 46.2 µM | GI50 (NCI-H226 lung) > 100 µM | GI50 (SK-MEL-28 melanoma) > 100 µM | GI50 (SF-539 CNS) 2.48 µM | GI50 (SK-OV-3 ovarian) 2.7 µM | GI50 (HCC-2998 colon) > 100 µM | GI50 (UACC-62 melanoma) 3.37 µM | GI50 (RPMI-8226 leukemia) 4.11 µM | GI50 (TK-10 renal) 67.8 µM | GI50 (HCT-15 colon) 2.24 µM | GI50 (COLO 205 colon) 0.878 µM | GI50 (U251 CNS) 3.78 µM | GI50 (SF-295 CNS) 1.38 µM | GI50 (OVCAR-3 ovarian) 0.874 µM | GI50 (CAKI-1 renal) 3.51 µM | GI50 (OVCAR-4 ovarian) 9.35 µM | GI50 (ACHN renal) 16.6 µM | GI50 (UO-31 renal) 6.53 µM | GI50 (PC-3 prostate) 2.48 µM | GI50 (HL-60(TB) leukemia) 3.04 µM | GI50 (OVCAR-8 ovarian) 3.85 µM | GI50 (HOP-62 NSCLC) 1.89 µM | GI50 (SW-620 colon) 2.02 µM | GI50 (A498 renal) 3.46 µM | GI50 (NCI-H460 lung) 3.89 µM | GI50 (K-562 leukemia) 1.59 µM | GI50 (SNB-19 CNS) 64.7 µM | GI50 (MDA-MB-231 breast) 9.12 µM | GI50 (T-47D breast) 2.46 µM | GI50 (NCI/ADR-RES ovarian) 1.36 µM | GI50 (MALME-3M melanoma) 3.08 µM | GI50 (SN12C renal) > 100 µM | GI50 (DU-145 prostate) 5.27 µM | GI50 (OVCAR-5 ovarian) > 100 µM | GI50 (BT-549 breast) 7.73 µM
6.49 µM: TGI (OVCAR-3 ovarian)
> 100 µM: TGI (SK-MEL-5 melanoma) | TGI (IGROV1 ovarian) | TGI (HT29 colon) | TGI (786-0 renal) | TGI (MDA-MB-435) | TGI (MCF7 breast) | TGI (LOX IMVI melanoma) | TGI (HS 578T breast) | TGI (NCI-H23 lung) | TGI (KM12 colon) | TGI (MOLT-4 leukemia) | TGI (SR leukemia) | TGI (M14 melanoma) | TGI (CCRF-CEM leukemia) | TGI (HCT-116 colon) | TGI (SF-268 CNS) | TGI (NCI-H226 lung) | TGI (SK-MEL-28 melanoma) | TGI (HCC-2998 colon) | TGI (UACC-62 melanoma) | TGI (RPMI-8226 leukemia) | TGI (TK-10 renal) | TGI (HCT-15 colon) | TGI (U251 CNS) | TGI (CAKI-1 renal) | TGI (OVCAR-4 ovarian) | TGI (ACHN renal) | TGI (UO-31 renal) | TGI (PC-3 prostate) | TGI (HL-60(TB) leukemia) | TGI (OVCAR-8 ovarian) | TGI (SW-620 colon) | TGI (A498 renal) | TGI (NCI-H460 lung) | TGI (K-562 leukemia) | TGI (SNB-19 CNS) | TGI (MDA-MB-231 breast) | TGI (T-47D breast) | TGI (NCI/ADR-RES ovarian) | TGI (MALME-3M melanoma) | TGI (SN12C renal) | TGI (DU-145 prostate) | TGI (OVCAR-5 ovarian) | TGI (BT-549 breast)
3.97 µM: TGI (COLO 205 colon)
7.43 µM: TGI (HOP-92 NSCLC)
19.7 µM: TGI (SK-OV-3 ovarian)
6.1 µM: TGI (SF-295 CNS)
active: GI50 (MDA-MB-435) 0.351 µM | GI50 (HOP-92 NSCLC) 0.309 µM | GI50 (NCI-H522 lung) 0.351 µM
9.9 µM: TGI (HOP-62 NSCLC)
2.88 µM: TGI (NCI-H522 lung)
8.57 µM: TGI (SF-539 CNS)

From PubChem BioAssay (NCI)
